The compounds below were run against T1, MKNK1 (Homo sapiens, UniProt Q9BUB5, T385D) (assay: MKNK1 kinase high ATP assay (TR-FRET-based)). Settings: Table 2a; 2 mM ATP, 15 min preincubation.
T1 construct: GST (N); purchased Carna Biosciences 02-145; host or cells: insect cells (baculovirus expression system)
Format: biochemical
Procedure: MKNK1 Kinase High ATP Assay
MKNK1-inhibitory activity at high ATP of compounds of the present invention after their preincubation with MKNK1 was quantified employing the TR-FRET-based MKNK1 high ATP assay as described in the following paragraphs.
A recombinant fusion protein of Glutathione-S-Transferase (GST, N-terminally) and human full-length MKNK1 (amino acids 1-424 and T344D of accession number BAA 19885.1), expressed in insect cells using baculovirus expression system and purified via glutathione sepharose affinity chromatography, was purchased from Carna Biosciences (product no 02-145) and used as enzyme. As substrate for the kinase reaction the biotinylated peptide biotin-Ahx-IKKRKLTRRKSLKG (C-terminus in amide form) was used, which can be purchased e.g. from the company Biosyntan (Berlin-Buch, Germany).
For the assay 50 nL of a 100 fold concentrated solution of the test compound in DMSO was pipetted into a black low volume 384 well microtiter plate (Greiner Bio-One, Frickenhausen, Germany), 2 μL of a solution of MKNK1 in aqueous assay buffer [50 mM HEPES pH 7.5, 5 mM magnesium chloride, 1.0 mM dithiothreitol, 0.005% (v/v) Nonidet-P40 (Sigma)] was added and the mixture was incubated for 15 min at 22° C. to allow pre-binding of the test compounds to the enzyme before the start of the kinase reaction. Then the kinase reaction was started by the addition of 3 μL of a solution of adenosine-tri-phosphate (ATP, 3.3 mM=>final conc. in the 5 μL assay volume is 2 mM) and substrate (0.1 μM=>final conc. in the 5 μL assay volume is 0.06 μM) in assay buffer and the resulting mixture was incubated for a reaction time of 30 min at 22° C. The concentration of MKNK1 was adjusted depending of the activity of the enzyme lot and was chosen appropriate to have the assay in the linear range, typical concentrations were in the range of 0.003 μg/mL. The reaction was stopped by the addition of 5 μL of a solution of TR-FRET detection reagents (5 nM streptavidine-XL665 [Cisbio Bioassays, Codolet, France] and 1 nM anti-ribosomal protein S6 (pSer236)-antibody from Invitrogen [#44921G] and 1 nM LANCE EU-W1024 labeled ProteinG [Perkin-Elmer, product no. AD0071]) in an aqueous EDTA-solution (100 mM EDTA, 0.1% (w/v) bovine serum albumin in 50 mM HEPES pH 7.5).
The resulting mixture was incubated for 1 h at 22° C. to allow the formation of complex between the phosphorylated biotinylated peptide and the detection reagents. Subsequently the amount of phosphorylated substrate was evaluated by measurement of the resonance energy transfer from the Eu-chelate to the streptavidine-XL. Therefore, the fluorescence emissions at 620 nm and 665 nm after excitation at 350 nm were measured in a TR-FRET reader, e.g. a Rubystar (BMG Labtechnologies, Offenburg, Germany) or a Viewlux (Perkin-Elmer). The ratio of the emissions at 665 nm and at […] was taken as the measure for the amount of phosphorylated substrate. The data were normalised (enzyme reaction without inhibitor=0% inhibition, all other assay components but no enzyme=100% inhibition).

T1 sequence (Q9BUB5 1-424 isoform Q9BUB5-2 T344D): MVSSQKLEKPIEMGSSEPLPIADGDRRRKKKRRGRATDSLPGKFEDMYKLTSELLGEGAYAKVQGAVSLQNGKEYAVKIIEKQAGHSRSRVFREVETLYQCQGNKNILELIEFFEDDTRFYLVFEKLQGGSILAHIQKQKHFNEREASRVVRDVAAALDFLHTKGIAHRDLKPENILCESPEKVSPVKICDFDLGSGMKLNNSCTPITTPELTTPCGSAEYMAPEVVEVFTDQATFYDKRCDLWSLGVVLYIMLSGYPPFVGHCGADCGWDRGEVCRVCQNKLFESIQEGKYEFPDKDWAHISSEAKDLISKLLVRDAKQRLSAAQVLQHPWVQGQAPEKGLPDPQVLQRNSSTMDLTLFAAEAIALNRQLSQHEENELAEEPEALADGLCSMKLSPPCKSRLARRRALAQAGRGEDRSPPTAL

Row | IC50 | SMILES
1 | 4.8 nM | CC(C)(C)C(=O)N1CCC[C@H]1CCOc1ccc2ncc(-c3cc4ccccc4o3)n2n1 [Example I-3, 1-[(2S)-2-(2-{[3-(1-Benzofuran-2-yl)imidazo[1,2-b]pyridazin-6-yl]oxy}ethyl)-pyrrolidin-1-yl]-2,2-dimethylpropan-1-one]
2 | 7 nM | COc1cccc2oc(-c3cnc4ccc(OC[C@H]5CN(C(=O)C6CC6)CCO5)nn34)cc12 [Example I-41, Cyclopropyl[(2R)-2-({[3-(4-methoxy-1-benzofuran-2-yl)imidazo[1,2-b]pyridazin-6-yl]oxy}methyl)morpholin-4-yl]methanone]

Same assay, conditions: Table 2b; 2 mM ATP, 15 min preincubation

Row | IC50 | SMILES
3 | 0.3 nM | COc1ccc2ncc(-c3cc4c(N5CCNC(C)(C)C5)cccc4o3)n2n1 [II-60, 3-[4-(3,3-dimethylpiperazin-1-yl)-1-benzofuran-2-yl]-6-methoxy-imidazo[1,2-b]pyridazine]
4 | 4.4 nM | COc1ccc2ncc(-c3cc4c(N5CCN[C@@H](C)C5)cccc4o3)n2n1 [II-40, 6-methoxy-3-{4-[(3S)-3-methylpiperazin-1-yl]-1-benzofuran-2-yl}imidazo[1,2-b]pyridazine]
5 | 5.5 nM | C[C@H]1CN(c2cccc3oc(-c4cnc5ccc(OCC(F)(F)F)nn45)cc23)CCN1 [II-41, 3-{4-[(3S)-3-methylpiperazin-1-yl]-1-benzofuran-2-yl}-6-(2,2,2-trifluoroethoxy)im-idazo[1,2-b]pyridazine]
6 | 7.1 nM | C[C@H]1CN(c2cccc3oc(-c4cnc5ccc(OCCCS(C)(=O)=O)nn45)cc23)CCN1 [II-52, 3-{4-[(3S)-3-methylpiperazin-1-yl]-1-benzofuran-2-yl}-6-[3-(methylsulfonyl)pro-poxy]imidazo[1,2-b]pyri-dazine]
7 | 5.8 nM | C[C@H]1CN(c2cccc3oc(-c4cnc5ccc(OC[C@@H]6CCC(=O)N6)nn45)cc23)CCN1 [II-42, (5S)-5-{[(3-{4-[(3S)-3-methylpiperazin-1-yl]-1-benzofuran-2-yl}imidazo[1,2-b]pyridazin-6-yl)oxy]methyl}pyrrolidin-2-one]

Same assay, conditions: Table 2c; 2 mM ATP, 15 min preincubation

Row | IC50 | SMILES
8 | 4.8 nM | C[C@H](N)COc1ccc2ncc(-c3cc4c(N5CCO[C@@H](C)C5)nccc4o3)n2n1 [III-29, (2S)-1-[(3-{4-[(2S)-2-Methylmorpholin-4-yl]furo[3,2-c]pyridin-2-yl}imidazo-[1,2-b]pyridazin-6-yl)oxy]propan-2-amine]
9 | 3.2 nM | COc1ccc2ncc(-c3cc4c(N5CCOC[C@H]5C)nccc4o3)n2n1 [III-92, 6-Methoxy-3-{4-[(3R)-3-methylmorpholin-4-yl]furo[3,2-c]pyridin-2-yl}imidazo[1,2-b]pyridazine]
10 | 5.2 nM | C[C@H]1COCCN1c1nccc2oc(-c3cnc4ccc(O[C@H]5C[C@H](N)C5)nn34)cc12 [III-109, trans-3-[(3-{4-[(3S)-3-Methylmorpholin-4-yl]furo[3,2-c]pyridin-2-yl}imidazo[1,2-b]pyridazin-6-yl)oxy]cyclobutanamine]
11 | 10.4 nM | C[C@H]1CN(c2nccc3oc(-c4cnc5ccc(O[C@H]6C[C@H](N)C6)nn45)cc23)CCO1 [III-110, trans-3-[(3-{4-[(2S)-2-Methylmorpholin-4-yl]furo[3,2-c]pyridin-2-yl}imidazo[1,2-b]pyridazin-6-yl)oxy]cyclobutanamine]
12 | 0.5 nM | C[C@H]1COCCN1c1nccc2oc(-c3cnc4ccc(OC[C@H]5CCC(=O)N5)nn34)cc12 [III-84, (5R)-5-{[(3-{4-[(3S)-3-Methylmorpholin-4-yl]furo[3,2-c]pyridin-2-yl}imidazo[1,2-b]pyridazin-6-yl)oxy]methyl}pyrrolidin-2-one]
13 | 10.1 nM | C[C@@H](N)COc1ccc2ncc(-c3cc4c(N5CCOC[C@@H]5C)nccc4o3)n2n1 [III-5, (2R)-1-[(3-{4-[(3S)-3-Methylmorpholin-4-yl]furo[3,2-c]pyridin-2-yl}imidazo-[1,2-b]pyridazin-6-yl)oxy]propan-2-amine]
14 | 4 nM | COc1ccc2ncc(-c3cc4c(N5CCO[C@@H](C)C5)nccc4o3)n2n1 [III-94, 6-Methoxy-3-{4-[(2S)-2-methylmorpholin-4-yl]furo[3,2-c]pyridin-2-yl}imidazo[1,2-b]pyridazine]
15 | 4.9 nM | C[C@H]1COCCN1c1nccc2oc(-c3cnc4ccc(OCCCS(C)(=O)=O)nn34)cc12 [III-59, 3-{4-[(3S)-3-Methylmorpholin-4-yl]furo[3,2-c]pyridin-2-yl}-6-[3-(methyl-sulfonyl)propoxy]imidazo[1,2-b]pyridazine]
16 | 5.6 nM | COc1ccc2ncc(-c3cc4c(N5CCOC[C@@H]5C)nccc4o3)n2n1 [III-93, 6-Methoxy-3-{4-[(3S)-3-methylmorpholin-4-yl]furo[3,2-c]pyridin-2-yl}imidazo[1,2-b]pyridazine]
17 | 9.4 nM | C[C@H](N)COc1ccc2ncc(-c3cc4c(N5CCOC[C@@H]5C)nccc4o3)n2n1 [III-28, (2S)-1-[(3-{4-[(3S)-3-Methylmorpholin-4-yl]furo[3,2-c]pyridin-2-yl}imidazo-[1,2-b]pyridazin-6-yl)oxy]propan-2-amine]
18 | 4.2 nM | C[C@@H]1CN(c2nccc3oc(-c4cnc5ccc(OCC(F)(F)F)nn45)cc23)CCN1 [III-127, 3-{4-[(3R)-3-methylpiperazin-1-yl]furo[3,2-c]pyridin-2-yl}-6-(2,2,2-trifluoroethoxy)imidazo [1,2-b]pyridazine]
19 | 3.7 nM | C[C@H]1COCCN1c1nccc2oc(-c3cnc4ccc(OC[C@@H]5CCC(=O)N5)nn34)cc12 [III-87, (5S)-5-{[(3-{4-[(3S)-3-Methylmorpholin-4-yl]furo[3,2-c]pyridin-2-yl}imidazo-[1,2-b]pyridazin-6-yl)oxy]methyl}pyrrolidin-2-one]
20 | 0.7 nM | C[C@@H]1COCCN1c1nccc2oc(-c3cnc4ccc(OC[C@H]5CCC(=O)N5)nn34)cc12 [III-79, (5R)-5-{[(3-{4-[(3R)-3-Methylmorpholin-4-yl]furo[3,2-c]pyridin-2-yl}imidazo[1,2-b]pyridazin-6-yl)oxy]methyl}pyrrolidin-2-one]
21 | 2.8 nM | C[C@H]1CN(c2nccc3oc(-c4cnc5ccc(OCCCS(C)(=O)=O)nn45)cc23)CCO1 [III-60, 3-{4-[(2S)-2-Methylmorpholin-4-yl]furo[3,2-c]pyridin-2-yl}-6-[3-(methyl-sulfonyl)propoxy]imidazo[1,2-b]pyridazine]
22 | 8.8 nM | C[C@@H](N)COc1ccc2ncc(-c3cc4c(N5CCO[C@@H](C)C5)nccc4o3)n2n1 [III-6, (2R)-1-[(3-{4-[(2S)-2-Methylmorpholin-4-yl]furo[3,2-c]pyridin-2-yl}imidazo-[1,2-b]pyridazin-6-yl)oxy]propan-2-amine]
23 | 4.2 nM | C[C@H]1CN(c2nccc3oc(-c4cnc5ccc(OC[C@@H]6CCC(=O)N6)nn45)cc23)CCO1 [III-88, (5S)-5-{[(3-{4-[(2S)-2-Methylmorpholin-4-yl]furo[3,2-c]pyridin-2-yl}imidazo-[1,2-b]pyridazin-6-yl)oxy]methyl}pyrrolidin-2-one]

Same assay, conditions: Table 2d; 2 mM ATP, 15 min preincubation

Row | IC50 | SMILES
24 | 7 nM | O=C1CC[C@H](COc2ccc3ncc(-c4cc5c(OCC6CC6)nccc5o4)n3n2)N1 [IV-12, (5R)-5-[({3-[4-(Cyclopropylmethoxy)furo[3,2-c]pyridin-2-yl]imidazo[1,2-b]-pyridazin-6-yl}oxy)methyl]pyrrolidin-2-one]
